In patent publication US20220233652A1, “Pharmaceutical Compositions Comprising Integration-Promoting Peptides” (priority 2018, published 2022):

Assays:
[1] = system: PANC-1 human pancreatic cancer cells; experiment: Pancreatic cancer tumor mice model; assay type: in vivo, athymic nude mice; details: day 17
Experimental: Two models of cancer were generated: lung cancer and pancreatic cancer. About 5×10^6 of 1975 human lung cancer cells per 0.1 ml PBS per mouse were injected to male 7 weeks old athymic nude mice (n=30). The cells were injected, subcutaneously at one site on the back of the mice. About 5×10^6 PANC-1 human pancreatic cancer cells per 0.1 ml PBS per mouse were injected to male 7 weeks old athymic nude mice (n=22). The cells were injected, subcutaneously at one site on the back of the mice. When tumors were palpable (˜0.3-0.5 cm^3), the mice were randomly divided into three groups (Table 27) and the viruses and/or peptides were injected, twice a week for two weeks.
(§1) The first day of the study was defined as ‘Day 1’. The animals were administrated IP with either Vehicle (PBS or Formulation), lentiviral particles and SC with test items according to Table 27 on days 1, 4, 8 and 11. Body weight and tumor volume were checked on days 3, 7, 11, 14 and 17 (the latter was measured with a caliper). At the end of the experiment, on day 17, the mice were anesthetized and then sacrificed, and the tumors were removed, as well as lung, spleen, kidney and liver.

[2] = Mortality, body weight and safety in tumor mice models; assay type: in vivo, athymic nude mice; details: lung and pancreatic cancer models
Experimental: • 1. Mortality—every day • 2. Tumor measurements—twice a week • 3. Tumor weight post mortem • 4. Tissue preservation—kept in formalin or were snap freezed and kept at −80° C.
as §1

[3] = Phase I/IIa clinical trial: safety and tolerability; assay type: in vivo, human; details: HIV patients, 5 weeks SC administration
Excerpt: Patients are monitored for adverse events (AE) of the INS peptide such as rash, acute allergic reaction, bronchospasm, respiratory distress, and acute vascular leak syndrome. If a severe administration related reaction occurs, the drug administration is stopped. Blood chemistry, hematology, coagulation, and urinalysis are repeated on Days 1, 4, 8, 11, 15, 18, 22, 25 at the clinic visits.
The primary safety endpoint is the frequency, severity, and duration of side effects. Number of participants with treatment-related adverse events as assessed by CTCAE v4.03, are evaluated though study completion. Main adverse events evaluation is based on DADS Toxicity criteria (Division of AIDS DADS Table for Grading the Severity of Adult and Paediatric Adverse Events, Corrected Version 2.1): • Viral load • Lymphopenia/Neutropenia • Immuno-reaction over reaction/cytokine storm • Infection surrounding the administration site • Liver function (lab tests) • Kidney function (lab tests)
Incidence of withdrawal (drop-out rate) due to side effects is evaluated throughout the study.

In the case of WTAVQMAVFIHNFKRK [INS], the “Reduction of weight of tumors relative to control” value ([1]; lentiviral particles + INS 1.25 mg/kg SC) is reported as 25%, the “Reduction of weight of tumors relative to control” value ([1]; lentiviral particles + INS 2.5 mg/kg SC) is reported as 50% and the Mortality ([2]; 17 days) is reported as “No animal was found dead or in morbid state”. For the same sequence, the Body weight ([2]; mice gained weight as expected) was “no differences between groups” and the “Side effects and harm to immune system (monitored by CD4 cells)” value [3] was “no side effects and no harm to immune system”.
